The values below come from publication PMC5013553, “A substrate-driven allosteric switch that enhances PDI catalytic activity” (Nature Communications, 2016).

The target in test [1] is T1, Protein disulfide isomerase (PDI) (Homo sapiens, UniProt P07237). In words: insulin turbidimetric and di-eosin-GSSG reductase assays. In kind it is biochemical. The arrangement: gene P4HB; full-length PDI.
In test [2] the target is T2, Protein disulfide isomerase (PDI) (Homo sapiens, UniProt P07237, I289A).
T2 construct: gene P4HB; isolated b′x domain; full-length PDI
T2 sequence (P07237 236-367 I289A limits assumed): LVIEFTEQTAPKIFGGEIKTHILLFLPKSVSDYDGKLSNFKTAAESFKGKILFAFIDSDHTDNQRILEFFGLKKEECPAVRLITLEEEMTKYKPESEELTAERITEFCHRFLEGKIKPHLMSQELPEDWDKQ
In words: ANS fluorescence binding (λex […] nm), displaced by bepristats, absent with I272A.

The target in test [3] is T1, Protein disulfide isomerase (PDI). In words: insulin turbidimetric reductase assay; ANS displacement from PDI and b′x, intrinsic Trp fluorescence, domain mapping. It is filed as biochemical. Also on record: gene P4HB; full-length PDI; also abb′ (residues 1–331), b′xa′ (residues 219–462) and b′x.

T1 sequence (P07237 18-508): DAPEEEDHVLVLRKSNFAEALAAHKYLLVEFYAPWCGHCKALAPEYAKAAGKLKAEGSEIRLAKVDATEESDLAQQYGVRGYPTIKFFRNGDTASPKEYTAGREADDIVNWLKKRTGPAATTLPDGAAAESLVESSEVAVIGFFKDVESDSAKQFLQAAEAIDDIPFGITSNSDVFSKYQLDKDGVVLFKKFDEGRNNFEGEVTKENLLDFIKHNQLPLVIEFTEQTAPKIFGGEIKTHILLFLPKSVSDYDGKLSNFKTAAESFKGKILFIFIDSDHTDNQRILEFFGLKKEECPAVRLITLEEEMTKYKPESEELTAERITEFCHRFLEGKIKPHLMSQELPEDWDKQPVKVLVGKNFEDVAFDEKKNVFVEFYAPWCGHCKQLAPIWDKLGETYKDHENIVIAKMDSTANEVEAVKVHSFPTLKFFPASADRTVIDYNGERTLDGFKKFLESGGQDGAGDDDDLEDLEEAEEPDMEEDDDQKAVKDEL

On to `C[C@@H]1O[C@@H](OC[C@H]2O[C@@H](Oc3c(-c4ccc(O)c(O)c4)oc4cc(O)cc(O)c4c3=O)[C@H](O)[C@@H](O)[C@@H]2O)[C@H](O)[C@H](O)[C@H]1O` [Q-3-R, quercetin-3-rutinoside], for which the “insulin turbidimetric and di-eosin-GSSG reductase assays” value in test [1] is “these other inhibitors all blocked PDI-mediated cleavage of di-eosin-GSSG when used at concentrations required to inhibit activity”. With `O=S(=O)(O)c1cccc2cccc(Nc3ccccc3)c12` [ANS, 1-anilinonaphthalene-8-sulfonic acid], the “ANS fluorescence binding (λex 370 nm), displaced by bepristats, absent with I272” value in test [2] is “ANS fluorescence was prominent on incubation with the isolated b′x domain and weak on incubation with isolated a, a′”. For bepristat 2a, the IC50 (in general, the concentration at which inhibition is half-maximal) in test [3] was roughly 1200 nM.

As for `CCN(C)C(=O)C1(CCOc2ccccc2)CCN(Cc2ccc(O)c(Cl)c2)CC1` [bepristat 1a], the IC50 in test [3] is roughly 700 nM.
